From patent US8658646B2, “Pyrrolopyrazine kinase inhibitors” (Hoffmann-LaRoche Inc., priority 2011, dated 2014)
Structures can show the parent of a compound that is named as a salt.

Molecular target: T1, recombinant human SYK360-635 (Homo sapiens, UniProt P43405)
T1 construct: made in house
Assay: Determination of IC50 of Spleen Tyrosine Kinase (SYK) inhibition, 33P ATP filtration assay
Type: biochemical
Conditions: SYK aa 360-635 0.5 nM; ATP 20 μM, peptide 5 μM, 0.1% BSA; read-out: SYK_ENZYME_FILTRATION/v1, BSA

Row | SMILES | IC50 [nM]
1 | Cn1nc(-c2cnc3[nH]cc(C(=O)NC(C)(C)C(C)(C)N)c3n2)c2ccc(F)cc21 [Example I-393, 2-(6-Fluoro-1-methyl-1H-indazol-3-yl]-5H-pyrrolo[2,3-b]pyrazine-7-carboxylic acid (2-amino-1,1,2-trimethyl-propyl)-amide] | 492
2 | Cc1ccc2c(-c3cnc4[nH]cc(C(=O)NC5(C)CCNC5)c4n3)n[nH]c2c1 (stereo not drawn) [Example I-431, 2-(6-Methyl-1H-indazol-3-yl)-5H-pyrrolo[2,3-b]pyrazine-7-carboxylic acid (3-methyl-pyrrolidin-3-yl)-amide] | 20.7
3 | COC[C@H](C)NC(=O)c1c[nH]c2ncc(-c3nn(C)c4ccc(C5CC5)cc34)nc12 [Example I-194, 2-(5-Cyclopropyl-1-methyl-1H-indazol-3-yl)-5H-pyrrolo[2,3-b]pyrazine-7-carboxylic acid ((S)-2-methoxy-1-methyl-ethyl)-amide] | 11.9
4 | CC(C)(C)NC(=O)c1c[nH]c2ncc(-n3ncc4ccc(C(F)(F)F)cc43)nc12 [Example I-330, 2-(6-Trifluoromethyl-indazol-1-yl)-5H-pyrrolo[2,3-b]pyrazine-7-carboxylic acid tert-butylamide] | 988
5 | CC(C)NC(=O)c1c[nH]c2ncc(-c3nn(C)c4c3CCC(C)(C)C4)nc12 [Example I-279, 2-(1,6,6-Trimethyl-4,5,6,7-tetrahydro-1H-indazol-3-yl)-5H-pyrrolo[2,3-b]pyrazine-7-carboxylic acid isopropylamide] | 277
6 | CC(C)(C)NC(=O)c1c[nH]c2ncc(-c3nn(C4CCNC4)c4cc(F)ccc34)nc12 (stereo not drawn) [Example I-258, 2-(6-Fluoro-1-pyrrolidin-3-yl-1H-indazol-3-yl)-5H-pyrrolo[2,3-b]pyrazine-7-carboxylic acid tert-butylamide] | 24.6
7 | CC(C)(N)CCCn1nc(-c2cnc3[nH]cc(C(=O)NC(C)(C)C)c3n2)c2cc(OC(F)F)ccc21 [Example I-454, 2-(1-(4-Amino-4-methylpentyl)-5-(difluoromethoxy)-1H-indazol-3-yl)-N-tert-butyl-5H-pyrrolo[3,2-b]pyrazine-7-carboxamide trifluoroacetate] | 7.6
8 | CCc1cccc2c(-c3cnc4[nH]cc(C(=O)NC(C)(C)C)c4n3)n[nH]c12 [Example I-355, 2-(7-Ethyl-1H-indazol-3-yl)-5H-pyrrolo[2,3-b]pyrazine-7-carboxylic acid tert-butylamide] | 3.19
9 | Cc1ccc2c(-c3cnc4[nH]cc(C(=O)NC(C)(C)CO)c4n3)nn(CCN(C)C)c2c1 [Example I-426, 2-[1-(2-Dimethylamino-ethyl)-6-methyl-1H-indazol-3-yl]-5H-pyrrolo[2,3-b]pyrazine-7-carboxylic acid (2-hydroxy-1,1-dimethyl-ethyl)-amide] | 57.4
10 | CC(C)(C)NC(=O)c1c[nH]c2ncc(-c3nn(CC(=O)N4CCOCC4)c4cc(F)ccc34)nc12 [Example I-251, 2-[6-Fluoro-1-(2-morpholin-4-yl-2-oxo-ethyl)-1H-indazol-3-yl]-5H-pyrrolo[2,3-b]pyrazine-7-carboxylic acid tert-butylamide] | 14.3
11 | Cn1nc(-c2cnc3[nH]cc(C(=O)NC(C)(C)C)c3n2)c2ccc(OC(F)(F)F)cc21 [Example I-370, 2-(1-Methyl-6-trifluoromethoxy-1H-indazol-3-yl)-5H-pyrrolo[2,3-b]pyrazine-7-carboxylic acid tert-butylamide] | 41
12 | Cn1nc(-c2cnc3[nH]cc(C(=O)NC(C)(C)CO)c3n2)c2ccc(C#N)cc21 [Example I-398, 2-(6-Cyano-1-methyl-1H-indazol-3-yl)-5H-pyrrolo[2,3-b]pyrazine-7-carboxylic acid (2-hydroxy-1,1-dimethyl-ethyl)-amide] | 12.2
13 | Cn1nc(-c2cnc3[nH]cc(C(=O)NC(C)(C)C)c3n2)c2cc(C3CC3)ccc21 [Example I-197, 2-(5-Cyclopropyl-1-methyl-1H-indazol-3-yl)-5H-pyrrolo[2,3-b]pyrazine-7-carboxylic acid tert-butylamide] | 4.79
14 | Cn1nc(-c2cnc3[nH]cc(C(=O)Nc4ccccc4)c3n2)c2ccc(Cl)cc21 [Example I-396, 2-(6-Chloro-1-methyl-1H-indazol-3-yl)-5H-pyrrolo[2,3-b]pyrazine-7-carboxylic acid phenylamide] | > 10000
15 | Cc1ccc2c(-c3cnc4[nH]cc(C(=O)NC(C)(C)CO)c4n3)nn(CCN3CCOCC3)c2c1 [Example I-445, 2-[6-Methyl-1-(2-morpholin-4-yl-ethyl)-1H-indazol-3-yl]-5H-pyrrolo[2,3-b]pyrazine-7-carboxylic acid (2-hydroxy-1,1-dimethyl-ethyl)-amide] | 24.7

Continued by falling IC50, values first:

Row | IC50 [nM] | SMILES
16 | 1840 | CC(C)(C)NC(=O)c1c[nH]c2ncc(-n3nc(C(F)(F)F)c4c3CCC4)nc12 [Example I-334, 2-(3-Trifluoromethyl-5,6-dihydro-4H-cyclopentapyrazol-1-yl)-5H-pyrrolo[2,3-b]pyrazine-7-carboxylic acid tert-butylamide]
17 | 317 | Cn1nc(-c2cnc3[nH]cc(C(=O)NC4(C)CNC4)c3n2)c2ccc(F)cc21 [Example I-409, 2-(6-Fluoro-1-methyl-1H-indazol-3-yl)-5H-pyrrolo[2,3-b]pyrazine-7-carboxylic acid (3-methyl-azetidin-3-yl)-amide]
18 | 112 | COC(=O)c1cnc([C@H](C)NC(=O)c2c[nH]c3ncc(-c4nn(C)c5cc(F)ccc45)nc23)[nH]1 [Example I-359, 2-((S)-1-{[2-(6-Fluoro-1-methyl-1H-indazol-3-yl)-5H-pyrrolo[2,3-b]pyrazine-7-carbonyl]-amino}-ethyl)-3H-imidazole-4-carboxylic acid methyl ester]
19 | 37.6 | CC(C)(C)NC(=O)c1c[nH]c2ncc(-n3ncc4cc(OC(F)F)ccc43)nc12 [Example I-325, 2-(5-Difluoromethoxy-indazol-1-yl)-5H-pyrrolo[2,3-b]pyrazine-7-carboxylic acid tert-butylamide]
20 | 37 | CC(C)(C)NC(=O)c1c[nH]c2ncc(-c3nn(CCCN4CCC(F)(F)C4)c4ccc(OC(F)F)cc34)nc12 [Example I-343, 2-{5-Difluoromethoxy-1-[3-(3,3-difluoro-pyrrolidin-1-yl)-propyl]-1H-indazol-3-yl}-5H-pyrrolo[2,3-b]pyrazine-7-carboxylic acid tert-butylamide]
21 | 8.55 | Cc1ccc2c(-c3cnc4[nH]cc(C(=O)NC(C)(C)C5CC5)c4n3)n[nH]c2c1 [Example I-433, 2-(6-Methyl-1H-indazol-3-yl)-5H-pyrrolo[2,3-b]pyrazine-7-carboxylic acid (1-cyclopropyl-1-methyl-ethyl)-amide]
22 | 5.8 | CC(C)NC(=O)c1c[nH]c2ncc(-c3nn(C)c4ccc(O)cc34)nc12 [Example I-65, 2-(5-Hydroxy-1-methyl-1H-indazol-3-yl)-5H-pyrrolo[2,3-b]pyrazine-7-carboxylic acid isopropylamide]
23 | 4.38 | Cn1nc(-c2cnc3[nH]cc(C(=O)NC(C)(C)C)c3n2)c2ccc(C#N)cc21 [Example I-394, 2-(6-Cyano-1-methyl-1H-indazol-3-yl)-5H-pyrrolo[2,3-b]pyrazine-7-carboxylic acid tert-butylamide]
24 | 2.82 | Cn1nc(-c2cnc3[nH]cc(C(=O)NC4(C)CCC4)c3n2)c2ccc(F)cc21 [Example I-376, 2-(6-Fluoro-1-methyl-1H-indazol-3-yl)-5H-pyrrolo[2,3-b]pyrazine-7-carboxylic acid (1-methyl-cyclobutyl)-amide]
